Key:
Format in all cases: in vivo
Conditions in all cases: PREEMERGENCE
[1] = system: arrowleaf sida (Sida rhombifolia); experiment: Test C; set-up: key: 0 was no effect; 100 was complete control
[2] = system: lambsquarters (Chenopodium album); experiment: Test C; set-up: key: 0 was no effect; 100 was complete control
[3] = system: wild poinsettia (Euphorbia heterophylla); experiment: Test C; set-up: key: 0 was no effect; 100 was complete control
[4] = system: ivyleaf morningglory (Ipomoea hederacea); experiment: Test C; set-up: key: 0 was no effect; 100 was complete control
[5] = system: eastern black nightshade (Solanum ptycanthum); experiment: Test C; set-up: key: 0 was no effect; 100 was complete control
[6] = system: fall panicum (Panicum dichotomiflorum); experiment: Test C; set-up: key: 0 was no effect; 100 was complete control
[7] = system: barnyardgrass (Echinochloa crus-galli); experiment: Test C; set-up: key: 0 was no effect; 100 was complete control
[8] = system: redroot pigweed (Amaranthus retroflexus); experiment: Test C; set-up: key: 0 was no effect; 100 was complete control
[9] = system: large crabgrass (Digitaria sanguinalis); experiment: Test C; set-up: key: 0 was no effect; 100 was complete control
[10] = system: large crabgrass (Digitaria sanguinalis); experiment: Test E pre-/postemergence/post directed
Text: (§1) Seeds, tubers, or plant parts of alexandergrass (Brachiaria plantaginea), annual bluegrass (Poa annua), arrowleaf sida (Sida rhombifolia), barnyardgrass (Echinochloa crus-galli), bermudagrass (Cynodon dactylon), citrus (Citrus sinensis), common chickweed (Stellaria media), common purslane (Portulaca oleracea), common ragweed (Ambrosia elatior), common groundsel (Senecio vulgaris), dallisgrass (Paspalum dilatatum), goosegrass (Eleusine indica), green foxtail (Setaria viridis), guineagrass (Panicum maximum), itchgrass (Rottboellia exaltata), johnson grass (Sorghum halepense), kochia (Kochia scoparia), large crabgrass (Digitaria sanguinalis), leafy spurge (Euphorbia esula), pitted morningglory (Ipomoea lacunosa), purple nutsedge (Cyperus rotundus), quackgrass (Agropyron repens), Russian thistle (Salsola kali), sandbur (Cenchrus echinatus), sourgrass (Trichachne insularis), Spanishneedles (Bidens bipinnata), sugarcane (Saccharum officinarum), surinam grass (Brachiaria decumbens) and tall mallow (Malva sylvestris) were planted into greenhouse pots of flats containing greenhouse planting medium. Plant species were grown grown in separate pots or individual compartments. Preemergence applications were made within one day of planting the seed or plant part. Postemergence applications were applied when the plants were in the two to four leaf stage (three to twenty cm).
(§2) Test chemicals were formulated in a non-phytotoxic solvent mixture which included a surfactant and applied preemergence to the soil surface, postemergence to the plants or as a post directed spray to plants and soil at the base of the target species. Untreated control plants and treated plants were placed in the greenhouse and visually evaluated for injury 13 to 21 days after herbicide application. Plant response ratings, summarized in Table E, are based on a 0 to 100 scale where 0 is no injury and 100 is complete control. A dash (−) response means no test result.

[11] = system: surinam grass (Brachiaria decumbens); experiment: Test E pre-/postemergence/post directed
Text: as §1, §2

[12] = system: bermudagrass (Cynodon dactylon); experiment: Test E pre-/postemergence/post directed
Text: as §1, §2

[13] = system: itchgrass (Rottboellia exaltata); experiment: Test E pre-/postemergence/post directed
Text: as §1, §2

[14] = system: Spanishneedles (Bidens bipinnata); experiment: Test E pre-/postemergence/post directed
Text: as §1, §2

[15] = system: alexandergrass (Brachiaria plantaginea); experiment: Test E pre-/postemergence/post directed
Text: as §1, §2

[16] = system: sandbur (Cenchrus echinatus); experiment: Test E pre-/postemergence/post directed
Text: as §1, §2

[17] = system: common ragweed (Ambrosia elatior); experiment: Test E pre-/postemergence/post directed
Text: as §1, §2

[18] = system: pitted morningglory (Ipomoea lacunosa); experiment: Test E pre-/postemergence/post directed
Text: as §1, §2

[19] = system: purple nutsedge (Cyperus rotundus); experiment: Test E pre-/postemergence/post directed; set-up: key: 0 is no injury; 100 is complete control
Text: as §1, §2

Cc1cnc(-c2ccc(C(F)(F)F)cc2)nc1C(Cl)c1cccc(C(F)(F)F)c1 (racemic) [Compound 21]
Plant response rating, Arrowleaf sida ([1]; Rate 35 g/ha): 70
Plant response rating, Arrowleaf sida ([1]; Rate 70 g/ha): 85
Plant response rating, Arrowleaf sida ([1]; Rate 140 g/ha): 90
Plant response rating, Lambsquarters ([2]; Rate 35 g/ha): 0
Plant response rating, Lambsquarters ([2]; Rate 70 g/ha): 5
Plant response rating, Lambsquarters ([2]; Rate 140 g/ha): 90
Plant response rating, Wild poinsettia ([3]; Rate 35 g/ha): 0
Plant response rating, Wild poinsettia ([3]; Rate 70 g/ha): 5
Plant response rating, Wild poinsettia ([3]; Rate 140 g/ha): 5
Plant response rating, I. morningglory ([4]; Rate 35 g/ha): 0
Plant response rating, I. morningglory ([4]; Rate 70 g/ha): 0
Plant response rating, I. morningglory ([4]; Rate 140 g/ha): 0
Plant response rating, E. blacknightsh ([5]; Rate 35 g/ha): 40
Plant response rating, E. blacknightsh ([5]; Rate 70 g/ha): 80
Plant response rating, E. blacknightsh ([5]; Rate 140 g/ha): 85
Plant response rating, Fall panicum ([6]; Rate 35 g/ha): 10
Plant response rating, Fall panicum ([6]; Rate 70 g/ha): 0
Plant response rating, Fall panicum ([6]; Rate 140 g/ha): 90
Plant response rating, Barnyardgrass ([7]; Rate 35 g/ha): 0
Plant response rating, Barnyardgrass ([7]; Rate 70 g/ha): 0
Plant response rating, Barnyardgrass ([7]; Rate 140 g/ha): 5
Plant response rating, Redroot pigweed ([8]; Rate 70 g/ha): 80
Plant response rating, Redroot pigweed ([8]; Rate 140 g/ha): 100
Plant response rating, Large crabgrass ([9]; Rate 35 g/ha): 80
Plant response rating, Large crabgrass ([9]; Rate 70 g/ha): 100
Plant response rating, Large crabgrass ([9]; Rate 140 g/ha): 100

Cc1cnc(-n2cnc(C(F)(F)F)n2)nc1Cc1cccc(C(F)(F)F)c1 [Compound 43]
Plant response rating, Arrowleaf sida ([1]; Rate 35 g/ha): 100
Plant response rating, Arrowleaf sida ([1]; Rate 70 g/ha): 100
Plant response rating, Arrowleaf sida ([1]; Rate 140 g/ha): 100
Plant response rating, Lambsquarters ([2]; Rate 35 g/ha): 100
Plant response rating, Lambsquarters ([2]; Rate 70 g/ha): 100
Plant response rating, Lambsquarters ([2]; Rate 140 g/ha): 100
Plant response rating, Wild poinsettia ([3]; Rate 35 g/ha): 10
Plant response rating, Wild poinsettia ([3]; Rate 70 g/ha): 50
Plant response rating, Wild poinsettia ([3]; Rate 140 g/ha): 60
Plant response rating, I. morningglory ([4]; Rate 35 g/ha): 20
Plant response rating, I. morningglory ([4]; Rate 70 g/ha): 100
Plant response rating, I. morningglory ([4]; Rate 140 g/ha): 100
Plant response rating, E. blacknightsh ([5]; Rate 35 g/ha): 100
Plant response rating, E. blacknightsh ([5]; Rate 70 g/ha): 100
Plant response rating, E. blacknightsh ([5]; Rate 140 g/ha): 100
Plant response rating, Fall panicum ([6]; Rate 35 g/ha): 100
Plant response rating, Fall panicum ([6]; Rate 70 g/ha): 100
Plant response rating, Fall panicum ([6]; Rate 140 g/ha): 100
Plant response rating, Barnyardgrass ([7]; Rate 35 g/ha): 10
Plant response rating, Barnyardgrass ([7]; Rate 70 g/ha): 30
Plant response rating, Barnyardgrass ([7]; Rate 140 g/ha): 50
Plant response rating, Redroot pigweed ([8]; Rate 35 g/ha): 100
Plant response rating, Redroot pigweed ([8]; Rate 70 g/ha): 100
Plant response rating, Redroot pigweed ([8]; Rate 140 g/ha): 100
Plant response rating, Large crabgrass ([9]; Rate 35 g/ha): 100
Plant response rating, Large crabgrass ([9]; Rate 70 g/ha): 100
Plant response rating, Large crabgrass ([9]; Rate 140 g/ha): 100

CCc1cnc(-n2ccc(C(F)(F)F)n2)nc1Cc1cccc(C(F)(F)F)c1 [Compound 46]
Plant response rating, Arrowleaf sida ([1]; Rate 35 g/ha): 100
Plant response rating, Arrowleaf sida ([1]; Rate 70 g/ha): 90
Plant response rating, Arrowleaf sida ([1]; Rate 140 g/ha): 100
Plant response rating, Lambsquarters ([2]; Rate 35 g/ha): 60
Plant response rating, Lambsquarters ([2]; Rate 70 g/ha): 100
Plant response rating, Lambsquarters ([2]; Rate 140 g/ha): 100
Plant response rating, Large crabgrass ([10]; Rate 32 g/ha): 90
Plant response rating, Large crabgrass ([10]; Rate 64 g/ha): 98
Plant response rating, Surinam grass ([11]; Rate 125 g/ha): 40
Plant response rating, Surinam grass ([11]; Rate 250 g/ha): 55
Plant response rating, Bermudagrass ([12]; Rate 32 g/ha): 70
Plant response rating, Bermudagrass ([12]; Rate 64 g/ha): 98
Plant response rating, Itchgrass ([13]; Rate 125 g/ha): 40
Plant response rating, Itchgrass ([13]; Rate 250 g/ha): 40
Plant response rating, Spanishneedles ([14]; Rate 32 g/ha): 65
Plant response rating, Spanishneedles ([14]; Rate 64 g/ha): 85
Plant response rating, Spanishneedles ([14]; Rate 125 g/ha): 90
Plant response rating, Spanishneedles ([14]; Rate 250 g/ha): 90
Plant response rating, Alexandergrass ([15]; Rate 125 g/ha): 60
Plant response rating, Alexandergrass ([15]; Rate 250 g/ha): 60
Plant response rating, Sandbur ([16]; Rate 64 g/ha): 10
Plant response rating, Sandbur ([16]; Rate 125 g/ha): 10
Plant response rating, Sandbur ([16]; Rate 250 g/ha): 30
Plant response rating, Com. ragweed ([17]; Rate 64 g/ha): 98
Plant response rating, Com. ragweed ([17]; Rate 125 g/ha): 98
Plant response rating, P. morninglory ([18]; Rate 32 g/ha): 65
Plant response rating, P. morninglory ([18]; Rate 64 g/ha): 65
Plant response rating, P. morninglory ([18]; Rate 125 g/ha): 65
Plant response rating, P. morninglory ([18]; Rate 250 g/ha): 65
Plant response rating, Wild poinsettia ([3]; Rate 35 g/ha): 0
Plant response rating, Wild poinsettia ([3]; Rate 70 g/ha): 15
Plant response rating, Wild poinsettia ([3]; Rate 140 g/ha): 20
Plant response rating, I. morningglory ([4]; Rate 35 g/ha): 45
Plant response rating, I. morningglory ([4]; Rate 70 g/ha): 50
Plant response rating, I. morningglory ([4]; Rate 140 g/ha): 50
Plant response rating, E. blacknightsh ([5]; Rate 35 g/ha): 80
Plant response rating, E. blacknightsh ([5]; Rate 70 g/ha): 100
Plant response rating, E. blacknightsh ([5]; Rate 140 g/ha): 100
Plant response rating, Purple nutsedge ([19]; Rate 32 g/ha): 0
Plant response rating, Purple nutsedge ([19]; Rate 64 g/ha): 0
Plant response rating, Purple nutsedge ([19]; Rate 125 g/ha): 0
Plant response rating, Purple nutsedge ([19]; Rate 250 g/ha): 0
Plant response rating, Fall panicum ([6]; Rate 35 g/ha): 60
Plant response rating, Fall panicum ([6]; Rate 70 g/ha): 100
Plant response rating, Fall panicum ([6]; Rate 140 g/ha): 100
Plant response rating, Barnyardgrass ([7]; Rate 35 g/ha): 5
Plant response rating, Barnyardgrass ([7]; Rate 70 g/ha): 10
Plant response rating, Barnyardgrass ([7]; Rate 140 g/ha): 50
Plant response rating, Redroot pigweed ([8]; Rate 35 g/ha): 70
Plant response rating, Redroot pigweed ([8]; Rate 70 g/ha): 100
Plant response rating, Redroot pigweed ([8]; Rate 140 g/ha): 100
Plant response rating, Large crabgrass ([9]; Rate 35 g/ha): 80
Plant response rating, Large crabgrass ([9]; Rate 70 g/ha): 100
Plant response rating, Large crabgrass ([9]; Rate 140 g/ha): 100

Cc1cnc(-n2ccc(C(F)(F)F)n2)nc1C(=O)c1cccc(OC(F)(F)F)c1 [Compound 66]
Plant response rating, Arrowleaf sida ([1]; Rate 35 g/ha): 5
Plant response rating, Arrowleaf sida ([1]; Rate 70 g/ha): 5
Plant response rating, Arrowleaf sida ([1]; Rate 140 g/ha): 100
Plant response rating, Lambsquarters ([2]; Rate 35 g/ha): 0
Plant response rating, Lambsquarters ([2]; Rate 70 g/ha): 0
Plant response rating, Lambsquarters ([2]; Rate 140 g/ha): 100
Plant response rating, Wild poinsettia ([3]; Rate 35 g/ha): 0
Plant response rating, Wild poinsettia ([3]; Rate 70 g/ha): 0
Plant response rating, Wild poinsettia ([3]; Rate 140 g/ha): 0
Plant response rating, I. morningglory ([4]; Rate 35 g/ha): 5
Plant response rating, I. morningglory ([4]; Rate 70 g/ha): 10
Plant response rating, I. morningglory ([4]; Rate 140 g/ha): 10
Plant response rating, E. blacknightsh ([5]; Rate 35 g/ha): 0
Plant response rating, E. blacknightsh ([5]; Rate 70 g/ha): 10
Plant response rating, E. blacknightsh ([5]; Rate 140 g/ha): 30
Plant response rating, Fall panicum ([6]; Rate 35 g/ha): 80
Plant response rating, Fall panicum ([6]; Rate 70 g/ha): 80
Plant response rating, Fall panicum ([6]; Rate 140 g/ha): 100
Plant response rating, Barnyardgrass ([7]; Rate 35 g/ha): 0
Plant response rating, Barnyardgrass ([7]; Rate 70 g/ha): 5
Plant response rating, Barnyardgrass ([7]; Rate 140 g/ha): 5
Plant response rating, Redroot pigweed ([8]; Rate 35 g/ha): 100
Plant response rating, Redroot pigweed ([8]; Rate 70 g/ha): 100
Plant response rating, Redroot pigweed ([8]; Rate 140 g/ha): 100
Plant response rating, Large crabgrass ([9]; Rate 35 g/ha): 80
Plant response rating, Large crabgrass ([9]; Rate 70 g/ha): 100
Plant response rating, Large crabgrass ([9]; Rate 140 g/ha): 100

Reference: US6525001B1, “Substituted pyrimidine and pyridine herbicides” (Mid-American Commercialization Corporation, priority 1997, dated 2003)
